For orientation: IC50 means the midpoint of a concentration-inhibition curve. Broadly, the EC50 is the midpoint of the concentration-response curve. Low values mean higher potency in that assay, high ones lower potency in that assay.

Each structure is given as a SMILES string.

The text below walks through data of PMC10123561 (Signal Transduction and Targeted Therapy, 2023).

Test [1] has as its system M^pro. Conditions: read-out: Activity: IC50; cited from earlier work.
In test [2] the test system is wild type SARS-CoV-2. Nature of the test: microbe, parasite or virus in culture. Type of test: cell-based. Conditions: mean ± sd.
For test [3], the system named is SARS-CoV-2. Particulars: cited from earlier work.

As to `CC(C)(C)NC(=O)[C@@H](c1cccnc1)N(C(=O)c1ccco1)c1ccc(C(C)(C)C)cc1` [0EN], the IC50 in test [1] was 4.8 µM.

Take `CCOC(=O)CC[C@H](C[C@@H]1CCNC1=O)NC(=O)[C@H](CC=C(C)C)CC(=O)[C@@H](NC(=O)[C@H](CO)NC(=O)OC(C)(C)C)C(C)C` [CYV]: the IC50 in test [1] is 80 µM.

`Cc1cc(S(=O)(=O)c2c([N+](=O)[O-])cc(C(F)(F)F)cc2[N+](=O)[O-])c(Cl)cc1Cl` [D3F]: the IC50 in test [1] is 0.3 µM.

As for `O=C(Sc1n[nH]c(C(F)(F)F)n1)c1ccc(C#Cc2ccccc2)o1` [F3F], the IC50 in test [1] is 3 µM.

In the case of `CCC(CC)COC(=O)[C@H](C)N[P@](=O)(OC[C@H]1O[C@@](C#N)(c2ccc3c(N)ncnn23)[C@H](O)[C@@H]1O)Oc1ccccc1` [Remdesivir], the EC50 in test [2] (Severe acute respiratory syndrome coronavirus 2, Vero C1008, Vero E6 cells) came to 1010 ± 130 nM; in test [2] (Severe acute respiratory syndrome coronavirus 2, Calu-3 cells) it was 1110 ± 170 nM. Besides, the “reduction of recovery time” value in test [3] (hospitalized adults) is recorded as 5 days.

As to `CC(C)C(=O)OC[C@H]1O[C@@H](n2ccc(NO)nc2=O)[C@H](O)[C@@H]1O` [molnupiravir], the “decrease of the risk of hospitalization or death” value in test [3] (MOVe-OUT, non-hospitalized patients) is reported as 48%.

Regarding `CC(C)(C)[C@H](NC(=O)C(F)(F)F)C(=O)N1C[C@H]2[C@@H]([C@H]1C(=O)N[C@H](C#N)C[C@@H]1CCNC1=O)C2(C)C` [nirmatrelvir], the “decrease of the probability of hospitalization or mortality” value in test [3] (EPIC-HR, non-hospitalized adults at high risk) is listed as 89%. Also, in test [3] (patients aged 40 to 64 years, Israel, omicron, untreated 15.8), the “rate of hospitalization owing to COVID-19 among treated patients” value is reported as 15.2 instances per 100,000 person-days.
